Experiments:
Format in all cases: in vivo
[1] = system: cervical sympathetic nerve; assay: Sympathetic blockade in anaesthetized cats (cervical sympathetic nerve stimulation, nictitating membrane contraction); conditions: i.v., ED₂₅ for inhibition of sympathetic nerve stimulation relative to neuromuscular ED₉₅
Experimental: (§1) Mongrel male cats (Southeastern Laboratories Animal Farm), weighing 2.2-4.25kg, were anaesthetized with a mixture of pentobarbital sodium, 7mg/kg i.p., and alpha-chloralose, 80 mg/kg i.p. Adequate levels of anaesthesia were maintained with supplemental doses of alpha-chloralose administered intravenously as needed. The trachea was cannulated and the animals were ventilated with 20 ml/kg of room air via a Harvard Apparatus respiration pump adjusted to deliver 20 strokes/minute. Arterial blood pressure was measured via a cannula in the right femoral artery connected to a Statham P23 transducer. Heart rate was determined from the ECG using a Grass tachograph. […] Isometric […] of the nictitating membrane were recorded during a resting tension of 5 grams with a Grass FT.03 force displacement transducer and a Grass polygraph. […] Twitch tension in the anterior tibialis was recorded during a resting tension of 50 grams. […] Esophageal temperature was monitored with a Yellow Springs thermistor probe and core temperature maintained between 37° and 38°C with radiant heat. […] At the end of the experiments, cats were euthanatized with intravenously administered saturated KCl or pentobarbital sodium. b) Results The ED₉₅ value for neuromuscular blocking potency was calculated from dose-response curves. […]

[2] = system: vagus; assay: Parasympathetic blockade in anaesthetized cats (inhibition of the response to vagus stimulation); conditions: i.v., ED₅₀ for inhibition of parasympathetic (vagus) nerve stimulation relative to neuromuscular ED₉₅
Experimental: as §1

[3] = system: anterior tibialis; assay: Neuromuscular blocking potency in anaesthetized cats (peroneal nerve stimulation, anterior tibialis twitch tension); conditions: intravenous (femoral vein), calculated from dose-response curves, mg/kg as the free base, based on the weight of the atracurium cation
Experimental: as §1

SMILES | RATIO 25% SYMPATHETIC INHIBITION vs. ED₉₅ [1] | RATIO 50% VAGUS INHIBITION vs. ED₉₅ [2] | CALC. * ED₉₅ [3]
COc1ccc(C[C@@H]2c3cc(OC)c(OC)cc3CC[N+]2(C)CCC(=O)OCCCCCOC(=O)CC[N+]2(C)CCc3cc(OC)c(OC)cc3[C@H]2Cc2ccc(OC)c(OC)c2)cc1OC.CS(=O)(=O)[O-].CS(=O)(=O)[O-] (relative stereo) [Compound A, 1R-cis,1'R-cis-2,2'-(3,11-Dioxo-4,10-dioxatridecamethylene)-bis-(1,2,3,4-tetrahydro-6,7-dimethoxy-2-methyl-1-veratrylisoquinolinium)methanesulphonate] | 60 | 27 | 0.062 ± 0.008 mg/kg
COc1ccc(CC2c3cc(OC)c(OC)cc3CC[N+]2(C)CCC(=O)OCCCCCOC(=O)CC[N+]2(C)CCc3cc(OC)c(OC)cc3C2Cc2ccc(OC)c(OC)c2)cc1OC (stereo not drawn) [Atracurium besylate, 2,2'-(3,11-dioxo-4,10-dioxatridecylene)-bis-(1,2,3,4-tetrahydro-6,7-dimethoxy-2-methyl-1-veratrylisoquinolinium dibesylate] | 34 | 17 | 0.092 ± 0.010 mg/kg
